{
  "source": "paper PMC4320118",
  "about": "“Micheliolide Derivative DMAMCL Inhibits Glioma Cell Growth In Vitro and In Vivo” (PLoS ONE, 2015)",
  "key": {"AML models": {"tested_on": "AML models", "details": "cited from earlier work"}, "C6 cells": {"tested_on": "C6 cells", "assay": "Apoptosis by Annexin V/PI flow cytometry, C6", "assay_type": "cell-based, rat", "protocol": "Glioma cells (10^4) in the logarithmic growth phase were seeded in 6-well plates for 24 h. Cells were treated with DMAMCL at 240, 120, 60, 30, 15, or 0 μM. They were removed from culture plates with 0.5% trypsin containing ethylene diamine tetraacetic acid (EDTA). Apoptosis of C6 cells was measured using an Annexin V and propidium iodide (PI) apoptosis detection kit (Invitrogen, USA) and a Beckman flow cytometer (Cytomics FC500, Beckman Coulter, USA)."}, "intracerebral C6 glioma [1]": {"tested_on": "intracerebral C6 glioma", "assay": "Survival time analysis in C6 intracerebral glioma rats", "assay_type": "in vivo, Wistar rats", "details": "for Survival (# of rats) End: 63 days, n = 10; for Survival: at 63 days; for Mean survival / Median survival: observation 63 days", "protocol": "C6 tumors were maintained as subcutaneous tumors in rats.\nThe survival time analyses were performed in C6 intracerebral glioma rats. […] Animals were monitored daily for signs of mortality and weight. Rats were sacrificed when a loss of mobility, lethargy, hemorrhaging around the eyes, or a hunched posture was observed as previously described. The observation time was terminated when all the vehicle rats died. Then the other rats were euthanized by CO2 asphyxiation."}, "intracerebral C6 glioma [2]": {"tested_on": "intracerebral C6 glioma", "protocol": "Adult Wistar rats (120–180 g, age 4–8 weeks) were obtained from the Animal Center at the Academy of Military Medical Sciences and had animal certification of SCXK (army) 2012–001. Animals were housed in collective cages at a temperature of 23 ± 2°C and relative humidity of 40% to 70%. All rats had free access to food and water.\nIntracerebral tumor implantations were performed according to the following procedures. C6 tumors were maintained as subcutaneous tumors in rats. Subcutaneous masses were excised, dissociated, and mixed with matrigel on ice (BD Biosciences) at a ratio of 1:1. After removing of the hair on the skull, a small midline incision in the scalp was gently made under anesthesia with 2% sodium pentobarbital at a dose of 40mg/kg. C6 cells in matrigel (0.1 mL of the cell/matrigel mixture containing 10^8 cells /mL) were carefully injected into the right frontal cortex by a special 16-gauge stainless steel needle with 5 mm needle tubing. Implantation coordinates were determined from Swanson’s Stereotaxic Atlas guidelines (1992): 1.0 mm anterior and 3.0 mm lateral to bregma, at a depth of 5.0 mm from the brain surface. […] The syringe was slowly retracted, the hole was sealed with bone wax, and the incision was sutured under aseptic conditions. […] Then 0.015 mg/kg buprenorphine (s.c.) was administered to relieve the pain. The rats were replaced in cages and allowed to recover from anesthesia.\nRats were divided into the following 5 treatment groups 24 h after surgery (n = 9 rats /group) according to rat weight: 1) vehicle (normal saline: NS); 2) vincristine (VCR) at 100μg/kg; 3) DMAMCL at 25 mg/kg; 4) DMAMCL at 50 mg/kg; and 5) DMAMCL at 100 mg/kg. All drugs were prepared in NS and administered once daily for 21 days. DMAMCL was administered orally, and VCR was injected into the caudal vein. Rats were weighed and monitored for signs of mortality daily. Twenty one days into the treatment, rats were euthanized via CO2 asphyxiation under deep anesthesia by sodium pentobarbital. Brains and tumors were separated from the cerebellum and medulla oblongata, and weighed, photographed, fixed in formalin, and embedded in paraffin for sectioning. The tumor: brain weight ratio was assessed to observe the degree of tumor cell growth in brain. Serial sections (5 μm in thickness) were stained by hematoxylin and eosin (HE)."}, "U-87MG cells": {"tested_on": "U-87MG cells", "assay": "Cell proliferation MTT assay, U-87MG", "assay_type": "cell-based", "details": "Homo sapiens, 72 h", "protocol": "C6 and U-87MG cell lines were obtained from the American Type Culture Collection (ATCC) and cultured in our laboratory. Rat C6 glioma cells were cultured in F12K nutrient medium (Gibco, Grand Island, […]) supplemented with 15% horse serum (Auckland, NZ), 2.5% fetal bovine serum (FBS), 100 U/mL penicillin, and […] streptomycin (Gibco, Paisley, Scotland, UK). Human U-87MG cells were cultured in minimum essential medium (MEM) supplemented with 10% FBS, 1% nonessential amino acids, 100 U/mL penicillin, and […] streptomycin. Cells were cultured under a humidified atmosphere containing 5% CO2 at 37°C, and medium was changed every 1 to 2 days.\nTumor cells were seeded in 96-well plates at a density of 3500 cells/well. After 24 h in culture, cells were exposed to different concentrations of DMAMCL or medium alone (control) for 72 h. Cell viability was determined by MTT assays. Briefly, MTT regent (0.5 mg/mL) was added to wells, and cells were incubated for 4 h at 37°C. After removing the supernatant, 200 μL of dimethyl sulfoxide (DMSO) (Fluka, Switzerland) was added to dissolve formazan crystals. The absorbance at 570 nm was measured by a microplate reader (Thermo Labsystems, Helsinki, Finland). Control absorbance was taken as 100%. The absorbance of DMAMCL-treated cells was taken as percentage survival. […]"}, "[3]": {"details": "DMAMCL 25 mg/kg daily for 21 days"}, "[4]": {"details": "DMAMCL 50 mg/kg daily for 21 days"}, "[5]": {"details": "DMAMCL 100 mg/kg daily for 21 days"}, "[6]": {"details": "DMAMCL 25 mg/kg orally once daily for 21 days"}, "[7]": {"details": "DMAMCL 50 mg/kg orally once daily for 21 days"}, "[8]": {"details": "DMAMCL 100 mg/kg orally once daily for 21 days"}},
  "note": "Several values for one entry are separate records, joined by “and”; a condition that tells them apart may be missing. Identical values can stand only once. Like-named read-outs stand apart in the source and are kept apart here.",
  "data": [
    {"smiles": "CC1=C2CC[C@@](C)(O)[C@@H]2[C@H]2OC(=O)[C@@H](CN(C)C)[C@@H]2CC1", "note": "[DMAMCL, dimethylaminomicheliolide]", "values": [
      {"measurement": "Therapeutic efficacy in AML models", "setting": "AML models", "result": "superior therapeutic efficacy"},
      {"measurement": "Surviving cells", "setting": "C6 cells; 240 μM", "result": "few surviving"},
      {"measurement": "Early and late apoptosis and necrosis", "setting": "C6 cells; 24 hr post-treatment, dose-dependent", "result": "significantly increased early and late apoptosis and necrosis"},
      {"measurement": "Median survival of deceased animals", "setting": "intracerebral C6 glioma [1]; [3]", "result": 28, "unit": "days"},
      {"measurement": "Time of death End", "setting": "intracerebral C6 glioma [1]; [3]", "result": 42, "unit": "days"},
      {"measurement": "Time of death Start", "setting": "intracerebral C6 glioma [1]; [3]", "result": 20, "unit": "days"},
      {"measurement": "Survival (# of rats) End", "setting": "intracerebral C6 glioma [1]; [3]", "result": "7 # of rats"},
      {"measurement": "Survival", "setting": "intracerebral C6 glioma [1]; [3]", "result": "70% and 70 ^** %"},
      {"measurement": "Mean survival", "setting": "intracerebral C6 glioma [1]; [3]", "result": "53.1 ± 16.8", "unit": "days"},
      {"measurement": "Median survival", "setting": "intracerebral C6 glioma [1]; [3]", "result": 63, "unit": "days"},
      {"measurement": "Median survival of deceased animals", "setting": "intracerebral C6 glioma [1]; [4]", "result": 25, "unit": "days"},
      {"measurement": "Time of death End", "setting": "intracerebral C6 glioma [1]; [4]", "result": 25, "unit": "days"},
      {"measurement": "Time of death Start", "setting": "intracerebral C6 glioma [1]; [4]", "result": 25, "unit": "days"},
      {"measurement": "Survival (# of rats) End", "setting": "intracerebral C6 glioma [1]; [4]", "result": "9 # of rats"},
      {"measurement": "Survival", "setting": "intracerebral C6 glioma [1]; [4]", "result": "90% and 90 ^*** %"},
      {"measurement": "Mean survival", "setting": "intracerebral C6 glioma [1]; [4]", "result": "59.2 ± 12", "unit": "days"},
      {"measurement": "Median survival", "setting": "intracerebral C6 glioma [1]; [4]", "result": 63, "unit": "days"},
      {"measurement": "Median survival of deceased animals", "setting": "intracerebral C6 glioma [1]; [5]", "result": 41, "unit": "days"},
      {"measurement": "Time of death End", "setting": "intracerebral C6 glioma [1]; [5]", "result": 41, "unit": "days"},
      {"measurement": "Time of death Start", "setting": "intracerebral C6 glioma [1]; [5]", "result": 41, "unit": "days"},
      {"measurement": "Survival (# of rats) End", "setting": "intracerebral C6 glioma [1]; [5]", "result": "9 # of rats"},
      {"measurement": "Survival", "setting": "intracerebral C6 glioma [1]; [5]", "result": "90% and 90 ^*** %"},
      {"measurement": "Mean survival", "setting": "intracerebral C6 glioma [1]; [5]", "result": "60.8 ± 7", "unit": "days"},
      {"measurement": "Median survival", "setting": "intracerebral C6 glioma [1]; [5]", "result": 63, "unit": "days"},
      {"measurement": "Survival longer than vehicle animals", "setting": "intracerebral C6 glioma [1]; DMAMCL-treated rats", "result": "~ 30 days"},
      {"measurement": "Body weight End", "setting": "intracerebral C6 glioma [2]; [6]", "result": "223.8 ± 13.1", "unit": "g"},
      {"measurement": "Inhibition (percent decrease in tumor weight compared to the vehicle group)", "setting": "intracerebral C6 glioma [2]; [6]", "result": 59.9, "unit": "%"},
      {"measurement": "Tumor weight", "setting": "intracerebral C6 glioma [2]; [6]", "result": "0.29 ± 0.20", "unit": "g"},
      {"measurement": "Tumor/brain", "setting": "intracerebral C6 glioma [2]; [6]", "result": "15.0 ± 9.5", "unit": "%"},
      {"measurement": "Rats surviving to the end of the study", "setting": "intracerebral C6 glioma [2]; DMAMCL 25 mg/kg, 21 days", "result": 89, "unit": "%"},
      {"measurement": "Body weight End", "setting": "intracerebral C6 glioma [2]; [7]", "result": "227.5 ± 11.9", "unit": "g"},
      {"measurement": "Inhibition (percent decrease in tumor weight compared to the vehicle group)", "setting": "intracerebral C6 glioma [2]; [7]", "result": 78.7, "unit": "%"},
      {"measurement": "Tumor weight", "setting": "intracerebral C6 glioma [2]; [7]", "result": "0.15 ± 0.12", "unit": "g"},
      {"measurement": "Tumor/brain", "setting": "intracerebral C6 glioma [2]; [7]", "result": "6.3 ± 3.9", "unit": "%"},
      {"measurement": "Rats surviving to the end of the study", "setting": "intracerebral C6 glioma [2]; DMAMCL 50 mg/kg, 21 days", "result": 89, "unit": "%"},
      {"measurement": "Body weight End", "setting": "intracerebral C6 glioma [2]; [8]", "result": "224.0 ± 12.1", "unit": "g"},
      {"measurement": "Inhibition (percent decrease in tumor weight compared to the vehicle group)", "setting": "intracerebral C6 glioma [2]; [8]", "result": 87.5, "unit": "%"},
      {"measurement": "Signs of toxicity in tumor-bearing rats", "setting": "intracerebral C6 glioma [2]; [8]", "result": "no signs of systemic or intracranial toxicity"},
      {"measurement": "Tumor weight", "setting": "intracerebral C6 glioma [2]; [8]", "result": "0.09 ± 0.09", "unit": "g"},
      {"measurement": "Tumor/brain", "setting": "intracerebral C6 glioma [2]; [8]", "result": "4.2 ± 3.1", "unit": "%"},
      {"measurement": "Histopathology of brain tissue (HE)", "setting": "intracerebral C6 glioma [2]; DMAMCL 100 mg/kg, 21 days", "result": "appeared similar to normal brain tissues"},
      {"measurement": "Rats surviving to the end of the study", "setting": "intracerebral C6 glioma [2]; DMAMCL 100 mg/kg, 21 days", "result": 100, "unit": "%"},
      {"measurement": "IC50", "setting": "U-87MG cells; read-out: IC50", "result": "20.6 ± 1.61", "unit": "µM"},
      {"measurement": "IC50", "setting": "U-87MG cells; read-out: x0 (midpoint of logistic fit, Fig 3B) (converted)", "result": "20.6 ± 1.6", "unit": "µM"}
    ]}
  ]
}
